Assay results: US20090082399A1, “Carbamate derivatives as positive allosteric modulators of metabotropic glutamate receptors” (Addex Pharma SA, priority 2005, published 2009)

Experiments:
rat mGluR5 = biological target: T1, rat mGluR5 (Rattus norvegicus, UniProt P31424); assay: mGluR5 assay on HEK-expressing rat mGluR5 (fluorescent cell based Ca2+ mobilization assay); conditions: for EC50: HEK-293 cells stably expressing rat mGluR5, no co-addition of glutamate, mean of at least three independent experiments in duplicate, read-out: Ca2+ Flux (mean EC50); for activation of rat mGluR5 receptors without co-addition of glutamate: HEK-rat mGluR5 cell line, no added glutamate or mGluR5 agonist
T1 construct: expressed in transfected cells
Experimental: Positive functional expression of HEK-293 cells stably expressing rat mGluR5 receptor was determined by measuring intracellular Ca^2+ changes using a Fluorometric Imaging Plate Reader (FLIPR, Molecular Devices, Sunnyvale, Calif.) in response to glutamate or selective known mGluR5 agonists and antagonists. Rat mGluR5 RT-PCR products in HEK-293 cells were sequenced and found 100% identical to rat mGluR5 Genbank reference sequence (NM_017012). HEK-293 cells expressing mGluR5 were maintained in media containing DMEM, dialyzed Fetal Bovine Serum (10%), Glutamax™ (2 mM), Penicillin (100 units/ml), Streptomycin (100 μg/ml), Geneticin (100 μg/ml) and Hygromycin-B (40 μg/ml) at 37° C./5% CO2.
After one day of incubation, cells were washed with assay buffer containing: 142 mM NaCl, 6 mM KCl, 1 mM […], 1 mM CaCl2, 20 mM HEPES, 1 g/L glucose, 0.125 mM sulfinpyrazone, pH 7.4. After 60 min of loading with 4 uM Fluo-4 (TefLabs, Austin, Tex.), the cells were washed three times with 50 μl of PBS Buffer and resuspended in 45 μl of assay Buffer. The plates were then transferred to a Fluorometric Imaging Plate Reader (FLIPR, Molecular Devices, Sunnyvale, Calif.) for the assessment of intracellular calcium flux. After monitoring the baseline fluorescence for 10 seconds, increasing concentrations of representative compound (from 0.01 to 60 μM) of the present invention diluted in Assay Buffer (15 μl of 4× dilutions) was added to the cell. The final DMSO concentration in the assay was 0.3%. In each experiment, fluorescence was then monitored as a function of time for 3 minutes and the data analyzed using Microsoft Excel and GraphPad Prism. Each data point was also measured two times.
Under these experimental conditions, this HEK-rat mGluR5 cell line is able to directly detect positive allosteric modulators without the need of co-addition of glutamate or mGluR5 agonist.
The concentration-response curves of representative compounds of the present invention were generated using the Prism GraphPad software (Graph Pad Inc, San Diego, USA). The curves were fitted to a four-parameter logistic equation:
(Y=Bottom+(Top−Bottom)/(1+10̂((Log EC50−X)*Hill Slope)
allowing determination of EC50 values.
The Table 1 below represents the mean EC50 obtained from at least three independent experiments of selected molecules performed in duplicate.

mGluR5 [1] = biological target: T2, mGluR5 (Rattus norvegicus, UniProt P31424); assay: mGluR5 binding assay ([3H]-MPEP, rat brain membranes); conditions: 3 nM [3H]-MPEP, rat cortex membranes, 1 h at 4° C.; read-out: IC50, inhibition of [3H]-MPEP binding
T2 construct: positive allosteric modulators of mGluR5 receptors in native preparations; endogenous in cells; host or cells: primary cortical astrocytes from Sprague-Dawley rat embryos (E16-19)
Description: Activity of compounds of the invention was examined following a radioligand binding technique using whole rat brain and tritiated 2-methyl-6-(phenylethynyl)-pyridine ([^3H]-MPEP) as a ligand following similar methods than those described in Gasparini F. et al. (2002) Bioorg. Med. Chem. Lett., 12, 407-409 and in Anderson J. F. et al. J. Pharmacol. Exp. Ther. 2002, 303, 3, 1044-1051.
Cortices were dissected out from brains of 200-300 g Sprague-Dawley rats (Charles River Laboratories, L'Arbresle, France). Tissues were homogenized in 10 volumes (vol/wt) of ice-cold 50 mM Hepes-NaOH (pH 7.4) using a Polytron disrupter (Kinematica AG, Luzern, Switzerland) and centrifuged for 30 min at 40,000 g. (4° C.). […] Protein concentration was determined by the Bradford method (Bio-Rad protein assay, Reinach, Switzerland) with bovine serum albumin as standard.
Membranes were thawed and resuspended in binding buffer containing 20 mM HEPES-NaOH, 3 mM MgCl2, 3 mM CaCl2, 100 mM NaCl, pH 7.4. […] Radioactivity was determined by liquid scintillation spectrometry using a 96-well plate reader (TopCount, Perkin-Elmer, Downers Grove, USA).
The inhibition curves were generated using the Prism GraphPad program (Graph Pad Software Inc, San Diego, USA). […] The mean of IC50 obtained from at least three independent experiments of selected molecules performed in duplicate were calculated.

mGluR5 [2] = biological target: T2, mGluR5; conditions: cited from earlier work

T1 sequence (P31424 21-1171 isoform P31424-2 limits assumed): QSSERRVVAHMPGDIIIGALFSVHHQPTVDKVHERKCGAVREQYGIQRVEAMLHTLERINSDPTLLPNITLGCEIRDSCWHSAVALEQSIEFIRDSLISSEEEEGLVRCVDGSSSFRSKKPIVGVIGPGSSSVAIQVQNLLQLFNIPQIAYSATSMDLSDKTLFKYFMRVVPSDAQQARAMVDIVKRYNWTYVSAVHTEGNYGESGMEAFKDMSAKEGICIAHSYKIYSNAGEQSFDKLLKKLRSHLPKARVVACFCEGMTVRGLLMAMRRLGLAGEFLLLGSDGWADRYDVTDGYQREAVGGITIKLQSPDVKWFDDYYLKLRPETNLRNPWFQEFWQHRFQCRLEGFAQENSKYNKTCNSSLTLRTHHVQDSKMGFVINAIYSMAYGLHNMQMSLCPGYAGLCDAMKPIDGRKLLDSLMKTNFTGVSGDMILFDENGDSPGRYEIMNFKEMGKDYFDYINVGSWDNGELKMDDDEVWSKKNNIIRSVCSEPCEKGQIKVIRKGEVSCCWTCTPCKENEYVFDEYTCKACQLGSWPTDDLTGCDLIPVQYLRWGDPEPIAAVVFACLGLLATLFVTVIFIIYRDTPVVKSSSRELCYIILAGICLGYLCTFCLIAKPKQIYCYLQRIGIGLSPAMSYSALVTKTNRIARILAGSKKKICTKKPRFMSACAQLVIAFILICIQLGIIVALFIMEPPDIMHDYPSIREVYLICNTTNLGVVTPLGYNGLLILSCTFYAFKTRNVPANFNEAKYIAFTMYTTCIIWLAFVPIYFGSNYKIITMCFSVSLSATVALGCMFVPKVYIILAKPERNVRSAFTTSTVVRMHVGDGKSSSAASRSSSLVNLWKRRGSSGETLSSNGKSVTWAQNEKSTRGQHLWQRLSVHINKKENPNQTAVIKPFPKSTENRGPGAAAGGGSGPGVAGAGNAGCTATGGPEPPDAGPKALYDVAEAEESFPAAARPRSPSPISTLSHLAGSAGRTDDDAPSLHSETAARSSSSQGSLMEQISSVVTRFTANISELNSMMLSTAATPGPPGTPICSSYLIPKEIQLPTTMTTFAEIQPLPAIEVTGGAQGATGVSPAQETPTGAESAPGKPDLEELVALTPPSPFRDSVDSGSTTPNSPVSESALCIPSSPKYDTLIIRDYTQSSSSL
T2 sequence (P31424 21-1203): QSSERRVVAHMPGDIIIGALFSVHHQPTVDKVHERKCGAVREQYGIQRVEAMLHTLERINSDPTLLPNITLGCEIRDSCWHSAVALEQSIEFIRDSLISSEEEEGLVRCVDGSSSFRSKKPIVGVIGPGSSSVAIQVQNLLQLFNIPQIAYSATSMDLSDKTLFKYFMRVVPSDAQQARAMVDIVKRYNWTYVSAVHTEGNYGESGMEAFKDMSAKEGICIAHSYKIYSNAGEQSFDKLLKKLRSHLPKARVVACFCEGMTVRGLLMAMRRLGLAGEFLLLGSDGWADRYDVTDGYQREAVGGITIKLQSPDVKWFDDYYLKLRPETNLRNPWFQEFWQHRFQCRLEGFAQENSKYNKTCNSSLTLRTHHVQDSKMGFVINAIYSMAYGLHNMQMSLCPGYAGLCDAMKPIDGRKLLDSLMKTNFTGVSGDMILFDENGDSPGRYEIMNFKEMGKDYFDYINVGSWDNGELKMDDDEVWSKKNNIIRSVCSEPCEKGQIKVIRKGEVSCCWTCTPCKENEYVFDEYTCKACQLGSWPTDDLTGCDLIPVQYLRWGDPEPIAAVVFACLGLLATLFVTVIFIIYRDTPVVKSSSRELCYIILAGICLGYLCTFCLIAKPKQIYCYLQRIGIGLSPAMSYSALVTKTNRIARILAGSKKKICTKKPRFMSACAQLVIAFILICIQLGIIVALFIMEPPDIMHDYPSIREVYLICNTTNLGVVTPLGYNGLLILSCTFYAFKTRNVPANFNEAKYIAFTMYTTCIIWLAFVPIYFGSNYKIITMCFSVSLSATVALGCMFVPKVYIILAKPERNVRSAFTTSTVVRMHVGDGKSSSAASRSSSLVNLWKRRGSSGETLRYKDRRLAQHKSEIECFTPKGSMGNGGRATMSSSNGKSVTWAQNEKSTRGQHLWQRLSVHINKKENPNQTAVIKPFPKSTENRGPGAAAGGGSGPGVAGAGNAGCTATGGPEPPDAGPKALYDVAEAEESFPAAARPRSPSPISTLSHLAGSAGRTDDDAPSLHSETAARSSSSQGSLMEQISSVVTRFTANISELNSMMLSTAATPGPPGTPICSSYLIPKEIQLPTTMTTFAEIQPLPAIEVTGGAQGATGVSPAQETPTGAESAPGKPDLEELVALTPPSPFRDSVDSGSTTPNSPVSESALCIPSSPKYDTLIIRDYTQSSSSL

Row | SMILES | EC50 (rat mGluR5) | also measured
1 | O=C(Nc1ccccc1)OC1CCN(C(=O)c2ccc(F)cc2)C1 (stereo not drawn) [Example 12, (Phenyl)-carbamic acid-1-(4-fluoro-benzoyl)-pyrrolidin-3-yl ester] | 1000 to 10000 nM | melting point: 173 to 175 °C
2 | O=C(NC1CCCC1)O[C@H]1CCCN(C(=O)c2ccc(F)cc2)C1 [Example 7, Cyclopentyl-carbamic acid (S)-1-(4-fluoro-benzoyl)-piperidin-3-yl ester] | > 10000 nM | 
3 | COc1ccc(NC(=O)O[C@H]2CCCN(C(=O)c3ccc(F)cc3)C2)cc1 [Example 3, (4-Methoxy-phenyl)-carbamic acid (S)-1-(4-fluoro-benzoyl)-piperidin-3-yl ester] | 1000 to 10000 nM | 
4 | O=C(Nc1ccc(Cl)cc1CN1C(=O)c2ccccc2C1=O)c1ccccc1O [CPPHA, reference compound] |  | activity in rat cortical astrocytes culture in the absence of added glutamate (mGluR5 [2]): inactive; activation of rat mGluR5 receptors without co-addition of glutamate (rat mGluR5): activating
5 | O=C(Nc1ccc(F)cc1)N[C@H]1CCCN(C(=O)c2ccc(F)cc2)C1 [Example 11, 1-[(S)-1-(4-Fluoro-benzoyl)-piperidin-3-yl]-3-(4-fluoro-phenyl)-urea] | 1000 to 10000 nM | melting point: 228 to 231 °C
6 | O=C(NCc1ccc(F)cc1)O[C@H]1CCCN(C(=O)c2ccc(F)cc2)C1 [Example 10, (4-Fluoro-benzyl)-carbamic acid (S)-1-(4-fluoro-benzoyl)-piperidin-3-yl ester] | 1000 to 10000 nM | 
7 | Fc1cccc(/C=N/N=C/c2cccc(F)c2)c1 [DFB, reference compound] |  | activity in rat cortical astrocytes culture in the absence of added glutamate (mGluR5 [2]): inactive; activation of rat mGluR5 receptors without co-addition of glutamate (rat mGluR5): activating
8 | O=C(NC1CCCCC1)O[C@H]1CCCN(C(=O)c2ccc(F)cc2)C1 [Example 8, Cyclohexyl-carbamic acid (S)-1-(4-fluoro-benzoyl)-piperidin-3-yl ester] | 1000 to 10000 nM | 
9 | N#Cc1cccc(C(=O)Nc2cc(-c3ccccc3)nn2-c2ccccc2)c1 [CDPPB, reference compound] |  | activity in rat cortical astrocytes culture in the absence of added glutamate (mGluR5 [2]): inactive; activation of rat mGluR5 receptors without co-addition of glutamate (rat mGluR5): activating
10 | O=C(Nc1ccc(Cl)cc1)O[C@H]1CCCN(C(=O)c2ccc(F)cc2)C1 [Example 2, (4-Chloro-phenyl)-carbamic acid (S)-1-(4-fluoro-benzoyl)-piperidin-3-yl ester] | 1000 to 10000 nM | 

The next lines start with results.

Row | EC50 (rat mGluR5) | SMILES | also measured
11 | 1000 to 10000 nM | O=C(Nc1ccncc1)O[C@H]1CCCN(C(=O)c2ccc(F)cc2)C1 [Example 9, Pyridin-4-yl-carbamic acid (S)-1-(4-fluoro-benzoyl)-piperidin-3-yl ester] | 
12 | < 1000 nM | O=C(Nc1cccc(F)c1)O[C@H]1CCCN(C(=O)c2ccc(F)cc2)C1 [Example 5, (3-Fluoro-phenyl)-carbamic acid (S)-1-(4-fluoro-benzoyl)-piperidin-3-yl ester] | 
13 | 1000 to 10000 nM | O=C(Nc1ccc(F)cc1)O[C@H]1CCCN(C(=O)c2ccc(F)cc2)C1 [Example 1, (4-Fluoro-phenyl)-carbamic acid (S)-1-(4-fluoro-benzoyl)-piperidin-3-yl ester] | IC50 (mGluR5 [1]): < 30000 nM
14 | < 1000 nM | O=C(Nc1ccccc1)O[C@H]1CCCN(C(=O)c2ccc(F)cc2)C1 [Example 4, Phenyl-carbamic acid (S)-1-(4-fluoro-benzoyl)-piperidin-3-yl ester] | 
15 | < 1000 nM | O=C(Nc1ccccc1F)O[C@H]1CCCN(C(=O)c2ccc(F)cc2)C1 [Example 6, (2-Fluoro-phenyl)-carbamic acid (S)-1-(4-fluoro-benzoyl)-piperidin-3-yl ester] | 
